The target of experiment [1] is porcine α2δ-1b-6His (SEQ ID No 9) (Sus scrofa, UniProt A0A287BIN3). The conditions noted are these: [3H]gabapentin 10-13 nM.
Method: Assays were carried out at 21° C. in a final volume of 250 μl in 96-well NEN Ni chelate flash plates. Wells were set up for both ‘total’ and ‘non-specific’ binding. Specific binding was defined as that remaining after subtraction of the average of the ‘non-specific binding’ values from the average of the ‘total’ binding values. Assay components were added in the following order (all reagents were diluted in 10 mM HEPES (pH 7.4 at 21° C.)):
Immediately after adding radioligand, flash plates were loaded in the Packard Top Count scintillation counter to follow the binding time course. Incubation time before the assay was 3 hours. The ‘[^3H] flash plate’ programme (cpm) was used to monitor activity. Specific binding was ˜98% of the ‘total’ value. Imidazole was used in the assay to optimize the specific interaction of the protein's 6His tag with the Ni flashplate.
GraphPad Prism software was used to process competition curve data and determine IC50 and hill slope values. Twelve point competition curves with half log dilution steps of test compounds were used in the experiments.
Experiment [2] has as its target [^3H]gabapentin site in porcine cortical membranes (Sus scrofa, UniProt O77773). The conditions noted are these: saturation binding analyses on porcine synaptic plasma cerebral cortex membranes in the presence of L-leucine; cited from earlier work.
Where [3] appears, read: read-out: Ki, Flash plate (3 μl protein used, n = 2), single experiments, Ki = IC50/(1 + [L]/KD), 3 h incubation.
The mark [4] stands for this setting: read-out: Ki, Flash plate, Mean (geometric), geometric mean of n = 2.

Molecules are shown by their SMILES. Where “and” joins values, the source holds several entries; their conditions need not be identical. Equal values may be shown once. Read-outs that look alike come from different tables or passages of the source.

Sequence of porcine α2δ-1b-6His (SEQ ID No 9) (A0A287BIN3 25-1109 limits assumed): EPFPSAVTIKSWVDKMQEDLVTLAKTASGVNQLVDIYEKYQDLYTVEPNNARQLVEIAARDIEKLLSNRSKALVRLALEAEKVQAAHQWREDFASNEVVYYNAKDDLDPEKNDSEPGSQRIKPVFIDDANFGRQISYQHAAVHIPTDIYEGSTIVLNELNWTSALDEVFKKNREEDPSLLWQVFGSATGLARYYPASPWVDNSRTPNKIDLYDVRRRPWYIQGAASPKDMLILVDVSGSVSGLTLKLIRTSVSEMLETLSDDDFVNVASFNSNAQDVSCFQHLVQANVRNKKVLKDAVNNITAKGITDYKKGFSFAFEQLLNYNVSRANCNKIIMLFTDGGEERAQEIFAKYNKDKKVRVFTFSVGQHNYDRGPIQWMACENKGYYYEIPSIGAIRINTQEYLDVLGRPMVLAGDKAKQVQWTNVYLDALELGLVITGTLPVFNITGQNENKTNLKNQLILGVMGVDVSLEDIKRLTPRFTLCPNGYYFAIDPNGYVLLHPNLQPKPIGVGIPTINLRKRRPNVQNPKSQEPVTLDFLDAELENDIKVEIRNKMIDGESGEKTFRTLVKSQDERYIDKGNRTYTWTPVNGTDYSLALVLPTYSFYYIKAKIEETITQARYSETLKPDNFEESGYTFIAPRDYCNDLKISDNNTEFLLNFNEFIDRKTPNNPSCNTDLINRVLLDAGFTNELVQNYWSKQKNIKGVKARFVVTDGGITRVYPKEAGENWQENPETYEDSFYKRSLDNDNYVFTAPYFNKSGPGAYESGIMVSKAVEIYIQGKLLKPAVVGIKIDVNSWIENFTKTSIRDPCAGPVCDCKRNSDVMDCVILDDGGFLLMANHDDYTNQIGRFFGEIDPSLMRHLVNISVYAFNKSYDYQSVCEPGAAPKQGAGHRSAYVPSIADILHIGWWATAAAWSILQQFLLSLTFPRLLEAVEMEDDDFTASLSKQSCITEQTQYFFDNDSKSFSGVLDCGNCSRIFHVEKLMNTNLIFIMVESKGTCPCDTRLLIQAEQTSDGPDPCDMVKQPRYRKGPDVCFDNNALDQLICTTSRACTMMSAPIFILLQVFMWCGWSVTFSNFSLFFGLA
Sequence of [^3H]gabapentin site in porcine cortical membranes (O77773 25-1091): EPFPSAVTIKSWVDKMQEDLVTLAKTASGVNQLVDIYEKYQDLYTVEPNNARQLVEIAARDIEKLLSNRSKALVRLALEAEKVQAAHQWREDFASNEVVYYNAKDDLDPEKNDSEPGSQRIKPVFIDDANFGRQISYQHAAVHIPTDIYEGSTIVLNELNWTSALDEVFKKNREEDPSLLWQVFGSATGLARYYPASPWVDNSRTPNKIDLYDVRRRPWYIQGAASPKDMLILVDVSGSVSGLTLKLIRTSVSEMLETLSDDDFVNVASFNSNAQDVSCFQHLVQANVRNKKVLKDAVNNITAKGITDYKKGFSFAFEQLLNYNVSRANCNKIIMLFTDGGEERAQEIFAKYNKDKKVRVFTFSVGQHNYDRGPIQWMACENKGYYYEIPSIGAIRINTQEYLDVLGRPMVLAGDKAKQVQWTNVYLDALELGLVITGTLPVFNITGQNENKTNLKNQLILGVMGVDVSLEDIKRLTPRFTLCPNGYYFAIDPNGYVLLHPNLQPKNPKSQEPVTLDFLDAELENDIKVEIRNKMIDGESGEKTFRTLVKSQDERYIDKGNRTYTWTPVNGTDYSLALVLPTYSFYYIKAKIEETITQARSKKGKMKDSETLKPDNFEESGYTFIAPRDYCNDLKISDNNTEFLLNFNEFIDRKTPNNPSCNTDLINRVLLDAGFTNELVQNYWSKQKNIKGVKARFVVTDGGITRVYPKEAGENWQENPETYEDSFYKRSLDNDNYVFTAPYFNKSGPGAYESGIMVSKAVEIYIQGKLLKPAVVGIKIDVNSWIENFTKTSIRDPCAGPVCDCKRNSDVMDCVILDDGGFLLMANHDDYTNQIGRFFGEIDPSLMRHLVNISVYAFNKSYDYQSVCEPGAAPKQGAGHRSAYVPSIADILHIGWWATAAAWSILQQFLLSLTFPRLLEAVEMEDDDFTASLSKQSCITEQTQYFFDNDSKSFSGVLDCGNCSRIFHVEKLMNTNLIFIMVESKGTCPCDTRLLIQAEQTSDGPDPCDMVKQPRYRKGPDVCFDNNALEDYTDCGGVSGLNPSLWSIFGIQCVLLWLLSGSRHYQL

Consider `CC(C)C[C@@H](CN)CC(=O)O` [(R-)-3-isobtyl GABA, (R−)-3-Isobutyl GABA], for which the Ki in experiment [1] (setting [3]) is 157 nM and 207 nM; in experiment [1] (setting [4]) it was 180 nM.

`CC(C)C[C@H](CN)CC(=O)O` [(S+)-3-isobutyl GABA]: the Ki in experiment [1] (setting [3]) was 10.9 nM and 7.58 nM; in experiment [1] (setting [4]), 9.09 nM.

`CC(C)C[C@H](N)C(=O)O` [L-Leucine]: in experiment [2], the “interaction with the [3H]gabapentin binding site” value is “competitive interaction”.
